Source: ChEMBL document CHEMBL6178014, “Discovery and Administration Optimization of Novel Selective CDK9 Inhibitor, 1-7a-B1, for Improved Pharmacokinetics and Antitumor Efficacy In Vivo” (J Med Chem, 2025)
pIC50: −log10 of the molar value. The source made the active and inactive calls. No cut-off for these calls is given here.

How the values were obtained:
CDK9/cyclin T1 = CDK9/cyclin T1 (Homo sapiens, UniProt P50750); test: Inhibition of His-tagged full length human recombinant CDK9/cyclinT1 using KTFCGTPEYLAPEVRREPRILSEEEQEMFRDFDYIADWC as substrate incubated for 60 mins by ADP-Glo kinase assay; type: protein-complex assay
HT-29 = test: Antiproliferative activity against human HT-29 cells assessed as inhibition of cell growth incubated for 48 hrs by CCK8 assay; type: functional
CDK4/Cyclin D3 = CDK4/Cyclin D3 (Homo sapiens, UniProt P11802); test: Inhibition of CDK4/cycD3 (unknown origin) by ADP-Glo assay; type: protein-complex assay
HCT-116 [1] = test: Induction of apoptosis in human HCT-116 cells assessed as increase in total apoptotic cells incubated for 48 hrs by Annexin V-FITC/PI staining based flow cytometry analysis; type: functional, cell-based; conditions: dose 100-400 nM
HCT-116 [2] = test: Induction of apoptosis in human HCT-116 cells assessed as increase in apoptotic cells by measuring red fluorescence by TUNEL staining based fluorescence microscopic analysis; type: functional, cell-based; conditions: dose 50-400 nM
HCT-116 [3] = test: Induction of apoptosis in human HCT-116 cells assessed as increase in caspase-3 activity at 100 to 200 nM incubated for 48 hrs by GreenNuc substrate based flow cytometry analysis; type: functional, cell-based; conditions: dose 100-200 nM
HCT-116 [4] = test: Downregulation of Bcl-2 mRNA level in human HCT-116 cells at 200 to 400 nM incubated for 48 hrs by qRT-PCR analysis; type: functional, cell-based; conditions: dose 200-400 nM
HCT-116 [5] = test: Induction of apoptosis in human HCT-116 cells assessed as increase in PARP cleavage incubated for 48 hrs by Western blot analysis; type: functional, cell-based; conditions: dose 100-400 nM
HCT-116 [6] = test: Effect on RNA polymerase II expression in human HCT-116 cells at 100 to 400 nM incubated for 48 hrs by Western blot analysis; type: functional, cell-based; conditions: dose 100-400 nM
HCT-116 [7] = test: Effect on MDM2 expression in human HCT-116 cells at 100 to 400 nM incubated for 48 hrs by Western blot analysis; type: functional, cell-based; conditions: dose 100-400 nM
HCT-116 [8] = test: Inhibition of wild type p53/MDM2 protein-protein interaction in human HCT-116 cells at 200 nM incubated for 48 hrs by co-immunoprecipitation (Co-IP) analysis; type: cell-based
HCT-116 [9] = test: Upregulation of p21 expression in human HCT-116 cells at 100 to 400 nM incubated for 48 hrs by Western blot analysis; type: functional, cell-based; conditions: dose 100-400 nM
HCT-116 [10] = test: Induction of cell cycle arrest in human HCT-116 cells assessed as accumulation of cells at S phase incubated for 48 hrs by PI/RNase staining based flow cytometry analysis; type: functional
Mitochondrial membrane = test: Induction of mitochondrial membrane depolarization in human HCT-116 cells at 100 to 400 nM incubated for 48 hrs by JC-1 staining based flow cytometry analysis; type: cell membranes; conditions: dose 100-400 nM
HCT-116 [11] = test: Induction of ROS accumulation in human HCT-116 cells at 100 to 400 nM incubated for 48 hrs by […] staining based flow cytometry analysis; type: functional, cell-based; conditions: dose 100-400 nM
[12] = Metabolic stability in human liver microsome assessed as half life at 100 uM pre-incubated with compound for 60 mins followed by NADPH addition and measured up to 60 mins by LC-MS/MS analysis; type: ADME; conditions: liver microsomes, time < 120 min
[13] = Metabolic stability in human liver microsome assessed as intrinsic clearance at 100 uM pre-incubated with compound for 60 mins followed by NADPH addition and measured up to 60 mins by LC-MS/MS analysis; type: ADME; conditions: liver microsomes, read-out: CLH
CYP1A2 = CYP1A2 (Homo sapiens, UniProt P05177); test: Inhibition of CYP1A2 in human liver microsome at 10 uM pre-incubated with compound for 10 mins in presence of NADPH-regenerating system by LC-MS/MS analysis relative to control; type: ADME; conditions: liver microsomes
[14] = Metabolic stability in human liver assessed as intrinsic clearance at 100 uM pre-incubated with compound for 60 mins followed by NADPH addition and measured up to 60 mins by LC-MS/MS analysis; type: ADME, tissue-based; conditions: read-out: CLH
[15] = Half life in Sprague-Dawley rat at 2 mg/kg, iv measured after 24 hrs by LC-MS/MS analysis; type: ADME, organism-based; conditions: in vivo
[16] = AUC (0 to infinity) in Sprague-Dawley rat at 2 mg/kg, iv measured after 24 hrs by LC-MS/MS analysis; type: ADME, organism-based; conditions: in vivo
[17] = MRT (infinity) in Sprague-Dawley rat at 2 mg/kg, iv measured after 24 hrs by LC-MS/MS analysis; type: ADME, organism-based; conditions: in vivo
[18] = AUC (0 to t) in Sprague-Dawley rat at 2 mg/kg, iv measured after 24 hrs by LC-MS/MS analysis; type: ADME, organism-based; conditions: in vivo
[19] = Half life in Sprague-Dawley rat at 30 mg/kg, po measured after 24 hrs by LC-MS/MS analysis; type: ADME, organism-based; conditions: in vivo
[20] = Tmax in Sprague-Dawley rat at 30 mg/kg, po measured after 24 hrs by LC-MS/MS analysis; type: ADME, organism-based; conditions: in vivo
[21] = Cmax in Sprague-Dawley rat at 30 mg/kg, po measured after 24 hrs by LC-MS/MS analysis; type: ADME, organism-based; conditions: in vivo
[22] = AUC (0 to t) in Sprague-Dawley rat at 30 mg/kg, po measured after 24 hrs by LC-MS/MS analysis; type: ADME, organism-based; conditions: in vivo
[23] = Cmax in Sprague-Dawley rat at 30 mg/kg, po as submicron emulsion measured after 24 hrs by LC-MS/MS analysis; type: ADME, organism-based; conditions: in vivo
[24] = MRT (infinity) in Sprague-Dawley rat at 30 mg/kg, po as submicron emulsion measured after 24 hrs by LC-MS/MS analysis; type: ADME, organism-based; conditions: in vivo
[25] = AUC (0 to t) in Sprague-Dawley rat at 30 mg/kg, po as submicron emulsion measured after 24 hrs by LC-MS/MS analysis; type: ADME, organism-based; conditions: in vivo
[26] = Toxicity in female BALB/c nu-nu mouse xenografted with human HCT-116 cells assessed as body weight loss at 20 mg/kg, po as submicron emulsion administered once daily for 3 weeks; type: organism-based; conditions: in vivo, 504 h
HCT-116 [27] = test: Antitumor activity against human HCT-116 cells xenografted in female BALB/c nu-nu mouse assessed as increase in caspase-3 cleavage at 40 mg/kg, po incubated for 48 hrs by Western blot analysis; type: functional, organism-based
[28] = Toxicity in female BALB/c nu-nu mouse xenografted with human HCT-116 cells assessed as histopathological changes in lung at 40 mg/kg, po administered once daily for 3 weeks by H and E staining based analysis; type: organism-based; conditions: in vivo, 504 h
[29] = Toxicity in female BALB/c nu-nu mouse xenografted with human HCT-116 cells assessed as histopathological changes in liver at 20 mg/kg, po as submicron emulsion administered once daily for 3 weeks by H and E staining based analysis; type: organism-based; conditions: in vivo, 504 h
[30] = Toxicity in female BALB/c nu-nu mouse xenografted with human HCT-116 cells assessed as histopathological changes in lung at 20 mg/kg, po as submicron emulsion administered once daily for 3 weeks by H and E staining based analysis; type: organism-based; conditions: in vivo, 504 h
HCT-116 [31] = test: Antitumor activity against human HCT-116 cells xenografted in female BALB/c nu-nu mouse assessed as downregulation of Bcl-2 mRNA expression at 40 mg/kg, po incubated for 48 hrs by qRT-PCR analysis; type: functional, organism-based

Sequence of CDK9/cyclin T1 (O60563 whole entry): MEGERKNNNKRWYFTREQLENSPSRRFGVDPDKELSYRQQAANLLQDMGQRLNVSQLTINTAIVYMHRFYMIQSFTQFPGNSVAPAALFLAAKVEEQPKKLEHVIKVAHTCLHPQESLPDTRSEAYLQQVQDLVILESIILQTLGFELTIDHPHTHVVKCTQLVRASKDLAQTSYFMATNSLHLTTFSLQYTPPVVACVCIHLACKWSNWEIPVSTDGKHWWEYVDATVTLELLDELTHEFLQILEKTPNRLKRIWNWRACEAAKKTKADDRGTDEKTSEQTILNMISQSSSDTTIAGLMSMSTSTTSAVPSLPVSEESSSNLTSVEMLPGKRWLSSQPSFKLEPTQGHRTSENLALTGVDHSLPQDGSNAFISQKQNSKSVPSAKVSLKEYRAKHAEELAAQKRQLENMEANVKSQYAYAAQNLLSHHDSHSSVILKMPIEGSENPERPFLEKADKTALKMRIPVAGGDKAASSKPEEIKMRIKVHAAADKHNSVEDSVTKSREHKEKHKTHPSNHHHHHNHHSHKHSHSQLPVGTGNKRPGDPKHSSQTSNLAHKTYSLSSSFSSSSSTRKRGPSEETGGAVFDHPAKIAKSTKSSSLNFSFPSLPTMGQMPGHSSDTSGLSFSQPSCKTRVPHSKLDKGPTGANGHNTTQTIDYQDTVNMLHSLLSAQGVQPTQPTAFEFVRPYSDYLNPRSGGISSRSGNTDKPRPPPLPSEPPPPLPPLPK
Sequence of CDK9/cyclin T1 (P50750 whole entry): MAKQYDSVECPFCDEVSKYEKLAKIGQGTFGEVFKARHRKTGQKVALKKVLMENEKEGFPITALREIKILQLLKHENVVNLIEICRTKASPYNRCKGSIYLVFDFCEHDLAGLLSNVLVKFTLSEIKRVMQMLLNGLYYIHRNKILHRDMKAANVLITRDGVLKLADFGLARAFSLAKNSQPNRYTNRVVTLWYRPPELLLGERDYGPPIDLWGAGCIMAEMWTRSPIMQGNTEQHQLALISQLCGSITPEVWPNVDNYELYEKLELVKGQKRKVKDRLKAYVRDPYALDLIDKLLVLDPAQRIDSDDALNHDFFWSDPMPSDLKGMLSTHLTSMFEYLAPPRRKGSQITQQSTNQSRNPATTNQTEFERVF
Sequence of CYP1A2 (P05177 whole entry): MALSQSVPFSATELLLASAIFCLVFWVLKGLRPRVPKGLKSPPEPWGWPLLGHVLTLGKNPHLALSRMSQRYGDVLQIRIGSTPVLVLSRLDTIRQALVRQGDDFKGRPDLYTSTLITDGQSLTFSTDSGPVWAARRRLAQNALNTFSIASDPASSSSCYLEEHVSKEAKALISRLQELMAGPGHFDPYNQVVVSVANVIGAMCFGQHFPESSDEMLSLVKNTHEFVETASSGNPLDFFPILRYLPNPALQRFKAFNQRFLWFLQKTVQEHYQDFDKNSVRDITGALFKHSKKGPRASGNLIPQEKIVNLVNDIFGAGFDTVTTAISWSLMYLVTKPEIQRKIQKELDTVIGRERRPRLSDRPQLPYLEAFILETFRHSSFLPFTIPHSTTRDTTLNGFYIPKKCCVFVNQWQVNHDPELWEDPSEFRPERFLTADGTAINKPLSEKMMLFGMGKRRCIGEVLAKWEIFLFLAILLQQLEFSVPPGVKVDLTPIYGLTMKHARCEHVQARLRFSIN
Sequence of CDK4/Cyclin D3 (P11802 whole entry): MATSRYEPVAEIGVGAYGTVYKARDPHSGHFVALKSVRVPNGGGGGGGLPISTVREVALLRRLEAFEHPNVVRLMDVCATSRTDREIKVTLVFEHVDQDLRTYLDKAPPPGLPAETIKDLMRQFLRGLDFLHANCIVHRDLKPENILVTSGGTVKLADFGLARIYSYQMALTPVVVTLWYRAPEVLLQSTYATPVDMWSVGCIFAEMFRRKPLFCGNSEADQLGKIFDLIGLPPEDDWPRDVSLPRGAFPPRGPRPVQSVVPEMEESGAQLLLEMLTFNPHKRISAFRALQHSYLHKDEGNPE
Sequence of CDK4/Cyclin D3 (P30281 whole entry, further chain): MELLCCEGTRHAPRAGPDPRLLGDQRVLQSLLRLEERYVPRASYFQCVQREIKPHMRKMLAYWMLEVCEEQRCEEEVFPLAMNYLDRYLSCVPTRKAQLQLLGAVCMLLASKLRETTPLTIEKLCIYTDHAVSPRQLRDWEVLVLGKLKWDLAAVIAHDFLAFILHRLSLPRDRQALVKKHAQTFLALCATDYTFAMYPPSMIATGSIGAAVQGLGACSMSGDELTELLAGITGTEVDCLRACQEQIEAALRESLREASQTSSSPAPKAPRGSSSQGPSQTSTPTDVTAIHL

pIC50 (CDK9/cyclin T1): 8.19
GI50 (HT-29): 190 nM
pIC50 (CDK4/Cyclin D3): 5.74
Activity (Mitochondrial membrane): Active
half-life at 100 µM [12]: 3.9 min
microsomal CLint at 100 µM [13]: 352 µL/min/mg
inhibition at 10 µM (CYP1A2): 12.5%
CLint scaled at 100 µM [14]: 317 mL/min/kg
half-life [15]: 17.6 min
AUC(0-inf) [16]: 407 ng·h/mL
MRT inf [17]: 20.1 min
AUC(0-t) at 24 h [18]: 403 ng·h/mL
half-life [19]: 47 min
Tmax [20]: 15 min
Cmax [21]: 302 ng/mL
AUC(0-t) at 24 h [22]: 897 ng·h/mL
Cmax [23]: 1020 ng/mL
MRT inf [24]: 125 min
AUC(0-t) at 24 h [25]: 1610 ng·h/mL
Structure (SMILES): CC(C)Oc1cc(F)ccc1-c1ccnc(NC(=O)Nc2cccc(C(=O)N3CCN(C)CC3)c2)c1
Activity (HCT-116 [1]): Dose-dependent-effect
Activity (HCT-116 [2]): Dose-dependent-effect
Activity (HCT-116 [3]): Active
Activity (HCT-116 [4]): Active
Activity (HCT-116 [5]): Dose-dependent-effect
Activity (HCT-116 [6]): inactive
Activity (HCT-116 [7]): inactive
inhibition (HCT-116 [8]): Active
Activity (HCT-116 [9]): Active
Activity (HCT-116 [10]): Active
Activity (HCT-116 [11]): Active
Activity [26]: Non-toxic
Activity (HCT-116 [27]): Active
Activity [28]: Non-toxic
Activity [29]: Non-toxic
Activity [30]: Non-toxic
Activity (HCT-116 [31]): Active
